These results are taken from the NIST ThermoML archive (doi:10.1016/j.fluid.2014.11.020).

Numbers after ± are expanded uncertainties.

A short description of the data set: activity coefficient (dimensionless); of the first substance listed, at infinite dilution; xn = mol fraction of the nth substance listed. Particulars: Liquid, Chromatography, x1 = 0.

Take `ClC(Cl)(Cl)Cl` [tetrachloromethane] + Cn1cc[n+](COCCCOC[n+]2ccn(C)c2)c1.O=S(=O)([N-]S(=O)(=O)C(F)(F)F)C(F)(F)F.O=S(=O)([N-]S(=O)(=O)C(F)(F)F)C(F)(F)F: the activity coefficient came to 3.21 ± 0.22 (323.15 K), 3.03 ± 0.21 (333.15 K) and 2.29 ± 0.16 (343.15 K).
As for `Cc1ccccc1` [toluene] + CCCCCCCCn1cc[n+](COCCC)c1C.N#C[N-]C#N, the activity coefficient amounted to 1.43 ± 0.09 (323.15 K), 1.22 ± 0.08 (333.15 K) and 1.15 ± 0.07 (343.15 K).
On the same counts, the results for `Cc1cccc(C)c1` [1,3-dimethylbenzene] + CCCOC[n+]1ccn(Cc2ccccc2)c1.N#C[N-]C#N are 3.62 ± 0.25, 3.52 ± 0.24 and 3.42 ± 0.23.
Regarding `CCCC(C)=O` [pentan-2-one] + Cn1cc[n+](COCCCOC[n+]2ccn(C)c2)c1.N#C[N-]C#N.N#C[N-]C#N, the activity coefficient turned out to be 3.5 ± 0.24 (323.15 K), 3.5 ± 0.24 (333.15 K) and 3.49 ± 0.24 (343.15 K).
As to `CCC(C)CC` [3-methylpentane] + CCCCCCCCn1cc[n+](COCCCOC[n+]2ccn(CCCCCCCC)c2C)c1C.N#C[N-]C#N.N#C[N-]C#N, where the note is “323.15 K”, the activity coefficient worked out at 3.48 ± 0.24.
Consider `CCCO` [propan-1-ol] + Cn1cc[n+](COCCCOC[n+]2ccn(C)c2)c1.N#C[N-]C#N.N#C[N-]C#N, for which the activity coefficient reads like this: (323.15 K) 1.22 ± 0.08; (333.15 K) 1.17 ± 0.07; (343.15 K) 1.1 ± 0.07.
As for `CCCO` [propan-1-ol] + CCCOC[n+]1ccn(C)c1.N#C[N-]C#N, the activity coefficient (323.15 K) was 0.97 ± 0.06, the activity coefficient (333.15 K) amounted to 0.95 ± 0.06 and the activity coefficient (343.15 K) came to 0.92 ± 0.06.
The matching figures for `CCO` [ethanol] + CCCCCCCCn1cc[n+](COCCCOC[n+]2ccn(CCCCCCCC)c2C)c1C.O=S(=O)([N-]S(=O)(=O)C(F)(F)F)C(F)(F)F.O=S(=O)([N-]S(=O)(=O)C(F)(F)F)C(F)(F)F: 0.64 ± 0.04, 0.58 ± 0.04 and 0.55 ± 0.04.
On the same counts, the results for `c1ccncc1` [pyridine] + Cn1cc[n+](COCCCOC[n+]2ccn(C)c2)c1.N#C[N-]C#N.N#C[N-]C#N are 1 ± 0.06, 1.01 ± 0.06 and 1.04 ± 0.07.
For the molecule `C#CCCCC` [1-hexyne] + N#C[N-]C#N.N#C[N-]C#N.c1ccc(Cn2cc[n+](COCCCOC[n+]3ccn(Cc4ccccc4)c3)c2)cc1, the activity coefficient by setting is: (323.15 K) 14.1 ± 0.96; (333.15 K) 11.7 ± 0.8.
With `CCC(C)=O` [butanone] + CCCCCCCCn1cc[n+](COCCCOC[n+]2ccn(CCCCCCCC)c2C)c1C.O=S(=O)([N-]S(=O)(=O)C(F)(F)F)C(F)(F)F.O=S(=O)([N-]S(=O)(=O)C(F)(F)F)C(F)(F)F, the activity coefficient (323.15 K) is 0.21 ± 0.03, the activity coefficient (333.15 K) was determined as 0.19 ± 0.03 and the activity coefficient (343.15 K) is 0.18 ± 0.03.
On the same counts, the results for `CCCCCCCCCCCC` [dodecane] + N#C[N-]C#N.N#C[N-]C#N.c1ccc(Cn2cc[n+](COCCCOC[n+]3ccn(Cc4ccccc4)c3)c2)cc1 are 631 ± 43, 634 ± 44 and 600 ± 41.
On the same counts, the results for `CCC(C)CC` [3-methylpentane] + CCCCCCCCn1cc[n+](COCCC)c1C.O=S(=O)([N-]S(=O)(=O)C(F)(F)F)C(F)(F)F are 3.57 ± 0.24, 3.42 ± 0.23 and 3.05 ± 0.21.
In the case of `CC(C)OC(C)C` [diisopropyl ether] + CCCOC[n+]1ccn(Cc2ccccc2)c1.F[B-](F)(F)F, the activity coefficient (323.15 K) came out at 17.6 ± 1.2 and the activity coefficient (333.15 K) stood at 14.8 ± 1.
Take `CCc1ccccc1` [ethylbenzene] + CCCOC[n+]1ccn(Cc2ccccc2)c1.N#C[N-]C#N: the activity coefficient by setting is: (323.15 K) 3.41 ± 0.23; (333.15 K) 3.36 ± 0.23; (343.15 K) 3.32 ± 0.23.
For `ClC(Cl)Cl` [trichloromethane] + CCCOC[n+]1ccn(C)c1.O=S(=O)([N-]S(=O)(=O)C(F)(F)F)C(F)(F)F, the activity coefficient by setting is: (323.15 K) 1.03 ± 0.06; (333.15 K) 1.06 ± 0.07; (343.15 K) 1.06 ± 0.07.
For `c1ccsc1` [thiophene] + CCCOC[n+]1ccn(C)c1.F[B-](F)(F)F, the activity coefficient was determined as 2.26 ± 0.15 (323.15 K), 2.27 ± 0.15 (333.15 K) and 2.27 ± 0.15 (343.15 K).
For `CCCCCCCCC` [nonane] + CCCCCCCCn1cc[n+](COCCC)c1C.O=S(=O)([N-]S(=O)(=O)C(F)(F)F)C(F)(F)F, the activity coefficient came to 7.93 ± 0.54 (323.15 K), 7.42 ± 0.51 (333.15 K) and 6.93 ± 0.47 (343.15 K).
On the same counts, the results for `C#CCCCC` [1-hexyne] + CCCOC[n+]1ccn(C)c1.O=S(=O)([N-]S(=O)(=O)C(F)(F)F)C(F)(F)F are 3.39 ± 0.23, 3.4 ± 0.23 and 3.4 ± 0.23.
The matching figures for `CCCCCCCC` [octane] + CCCOC[n+]1ccn(Cc2ccccc2)c1.N#C[N-]C#N: 70.1 ± 4.8, 61.5 ± 4.2 and 57.8 ± 4.
The matching figures for `CC#N` [acetonitrile] + CCCOC[n+]1ccn(Cc2ccccc2)c1.N#C[N-]C#N: 0.72 ± 0.05, 0.76 ± 0.05 and 0.77 ± 0.05.
For `CCCO` [propan-1-ol] + N#C[N-]C#N.N#C[N-]C#N.c1ccc(Cn2cc[n+](COCCCOC[n+]3ccn(Cc4ccccc4)c3)c2)cc1, the activity coefficient is, setting by setting: (323.15 K) 1.24 ± 0.08; (333.15 K) 1.2 ± 0.08; (343.15 K) 1.14 ± 0.07.
For `CCCCCCCCCCCCC` [tridecane] + CCCOC[n+]1ccn(C)c1.N#C[N-]C#N, the activity coefficient (323.15 K) amounted to 1150 ± 79, the activity coefficient (333.15 K) was determined as 1030 ± 71 and the activity coefficient (343.15 K) was 916 ± 63.
On the same counts, the results for `CCC(C)CC` [3-methylpentane] + CCCCCCCCn1cc[n+](COCCCOC[n+]2ccn(CCCCCCCC)c2C)c1C.O=S(=O)([N-]S(=O)(=O)C(F)(F)F)C(F)(F)F.O=S(=O)([N-]S(=O)(=O)C(F)(F)F)C(F)(F)F are 3.59 ± 0.24, 3.36 ± 0.23 and 3.13 ± 0.21.
The matching figures for `CCCCO` [butan-1-ol] + CCCCCCCCn1cc[n+](COCCC)c1C.O=S(=O)([N-]S(=O)(=O)C(F)(F)F)C(F)(F)F: 5.47 ± 0.37, 4.33 ± 0.3 and 4.28 ± 0.29.
On the same counts, the results for `C1CCCCC1` [cyclohexane] + CCCOC[n+]1ccn(C)c1.O=S(=O)([N-]S(=O)(=O)C(F)(F)F)C(F)(F)F are 9.55 ± 0.65, 9.25 ± 0.63 and 9.07 ± 0.62.
Take `CCc1ccccc1` [ethylbenzene] + CN(C)c1cc[n+](COCCCOC[n+]2ccc(N(C)C)cc2)cc1.O=S(=O)([N-]S(=O)(=O)C(F)(F)F)C(F)(F)F.O=S(=O)([N-]S(=O)(=O)C(F)(F)F)C(F)(F)F: the activity coefficient is, setting by setting: (323.15 K) 1.46 ± 0.1; (333.15 K) 1.49 ± 0.1; (343.15 K) 1.5 ± 0.1.
With `c1ccccc1` [benzene] + Cn1cc[n+](COCCCOC[n+]2ccn(C)c2)c1.N#C[N-]C#N.N#C[N-]C#N, the activity coefficient was found to be 3.03 ± 0.21 (323.15 K), 3.05 ± 0.21 (333.15 K) and 3.08 ± 0.21 (343.15 K).
The matching figures for `ClC(Cl)Cl` [trichloromethane] + CN(C)c1cc[n+](COCCCOC[n+]2ccc(N(C)C)cc2)cc1.O=S(=O)([N-]S(=O)(=O)C(F)(F)F)C(F)(F)F.O=S(=O)([N-]S(=O)(=O)C(F)(F)F)C(F)(F)F: 0.67 ± 0.05, 0.69 ± 0.05 and 0.7 ± 0.05.
On the same counts, the results for `CC(C)OC(C)C` [diisopropyl ether] + CCCCCCCCn1cc[n+](COCCCOC[n+]2ccn(CCCCCCCC)c2C)c1C.O=S(=O)([N-]S(=O)(=O)C(F)(F)F)C(F)(F)F.O=S(=O)([N-]S(=O)(=O)C(F)(F)F)C(F)(F)F are 1.54 ± 0.1, 1.56 ± 0.1 and 1.54 ± 0.1.
The matching figures for `CCC[N+](=O)[O-]` [1-nitropropane] + CCCCCCCCn1cc[n+](COCCC)c1C.O=S(=O)([N-]S(=O)(=O)C(F)(F)F)C(F)(F)F: 0.54 ± 0.04, 0.53 ± 0.04 and 0.53 ± 0.04.
As for `CCCCCC` [hexane] + CCCOC[n+]1ccn(Cc2ccccc2)c1.N#C[N-]C#N, under “323.15 K”, the activity coefficient is 32.4 ± 2.2.
In the case of `C1CCCCC1` [cyclohexane] + CCCCCCCCn1cc[n+](COCCCOC[n+]2ccn(CCCCCCCC)c2C)c1C.N#C[N-]C#N.N#C[N-]C#N, the activity coefficient reads like this: (323.15 K) 4.29 ± 0.29; (333.15 K) 3.86 ± 0.26; (343.15 K) 3.71 ± 0.25.
The matching figures for `Cc1ccccc1` [toluene] + CCCOC[n+]1ccn(C)c1.N#C[N-]C#N: 3.6 ± 0.25, 3.65 ± 0.25 and 3.77 ± 0.26.
The matching figures for `CC1CCCC1` [methylcyclopentane] + CCCOC[n+]1ccn(Cc2ccccc2)c1.O=S(=O)([N-]S(=O)(=O)C(F)(F)F)C(F)(F)F: 5.48 ± 0.37, 4.46 ± 0.3 and 4.02 ± 0.27.
`Cc1ccc(C)cc1` [1,4-dimethylbenzene] + CCCCCCCCn1cc[n+](COCCC)c1C.N#C[N-]C#N: the activity coefficient is, setting by setting: (323.15 K) 1.51 ± 0.1; (333.15 K) 1.52 ± 0.1; (343.15 K) 1.56 ± 0.1.
Turning to `Cc1cccc(C)c1` [1,3-dimethylbenzene] + CCCCCCCCn1cc[n+](COCCC)c1C.N#C[N-]C#N, the activity coefficient (323.15 K) was 1.54 ± 0.1, the activity coefficient (333.15 K) was determined as 1.54 ± 0.1 and the activity coefficient (343.15 K) amounted to 1.57 ± 0.1.
`ClC(Cl)Cl` [trichloromethane] + CCCCCCCCn1cc[n+](COCCC)c1C.O=S(=O)([N-]S(=O)(=O)C(F)(F)F)C(F)(F)F: the activity coefficient by setting is: (323.15 K) 0.51 ± 0.04; (333.15 K) 0.49 ± 0.04; (343.15 K) 0.53 ± 0.04.
